Measurements published in patent US20250325565A1, “ERAVACYCLINE FOR TREATING CANCER” (B. G. NEGEV TECHNOLOGIES AND APPLICATIONS LTD., priority 2022, published 2025).

Columns and labels:
Assay type in all cases: cell-based, human
[1] = system: BxPC-3 cells; experiment: XTT cell proliferation assay, BxPC-3
Method: (§1) Human PDAC (AsPC-1, BxPC-3, Panc-1 scr, Panc-1 p53-R273H knock-out (KO) hTERT-HPNE), breast (MCF-7), lung (A549), and colon (HT-29) cancer cell lines were purchased from the American Type Culture Collection (ATCC). The MCF-7, A549, Panc-1 scr, Panc-1 p53 KO and HT-29 cell lines were grown in Dulbecco's Modified Eagle Medium (DMEM; Biological Industries, Beit HaEmek (BI), Israel), and the BxPC-3 and AsPC-1 cell lines were cultured in Roswell Park Memorial Institute-1640 (RPMI-1640; BI, Israel) medium. All media was supplemented with 10% fetal bovine serum (FBS), 200 μM L-glutamine (BI), and 1% penicillin-streptomycin (BI). Cells were cultured at 37° C. in a 5% CO2 humidified incubator.
(§2) Eravacycline dihydrochloride (MedChem Express (MCE)) was dissolved in […] (DDW). Tigecycline (MCE) and omadacycline (MCE) were dissolved in dimethyl sulphoxide (DMSO). All drugs were prepared as 100 mM stock solutions. All cell lines were treated with DMSO as a control (less than 0.1%) or tigecycline, omadacycline, or eravacycline (at the indicated concentrations) for 72 hours. Cell viability and proliferation were determined using the XTT Cell Proliferation Assay Kit (Promega).
(§3) The XTT Cell Proliferation Assay Kit was used to determine cell viability and proliferation. Cells were seeded in 96-well plates at a density of 4,000 cells per well and allowed to attach overnight in a 5% CO2 incubator at 37° C. After overnight incubation, cells were treated with culture medium or in a medium containing tigecycline, omadacycline, or eravacycline at different concentrations (1, 2, 5, 10, 25, and 50 μM) for the indicated time period. Then, 50 μl XTT reaction solution (0.1 ml activation solution+5 ml XTT reagent solution) was added to each well, and the plate was incubated at 37° C. for two hours. After shaking the plate gently to distribute the dye in the wells, the absorbance was measured with a spectrophotometer (Bio-RadiMark Microplate Absorbance reader) at a wavelength of 450 nm and a reference wavelength of 655 nm.
(§4) To evaluate the half maximal inhibitory concentration (IC50) of tetracycline derivatives on five different cell lines (MCF-7, A549, HT-29, BxPC-3, and AsPC-1), the cells were seeded and allowed to attach overnight. All cells were washed with phosphate buffered saline (PBS) and then cultured in fresh media containing the drugs tigecycline, omadacycline, or eravacycline at an increasing concentration (0-50 μM) for 72 h. Inhibition of cell proliferation was determined using the XTT Cell Proliferation Assay Kit.
(§5) To investigate the effect of tetracycline derivatives on cell proliferation in human breast, lung, colon, and PDAC cells, the inventors treated all cell lines (MCF-7, A549, HT-29, BxPC-3, and AsPC-1) with different concentrations of tigecycline, omadacycline, and eravacycline (1, 2, 5, 10, 25, and 50 μM), with medium used as a control, for 72 h. Then, an XTT assay was performed to determine the growth inhibition rate.

[2] = system: AsPC-1 cells; experiment: XTT cell proliferation assay, AsPC-1
Method: as §1, §2, §3, §4, §5

[3] = system: A549 cells; experiment: XTT cell proliferation assay, A549; conditions: A549, 72 h, 1-50 μM
Method: as §1, §2
(§6) The XTT Cell Proliferation Assay Kit was used to determine cell viability and proliferation. Cells were seeded in 96-well plates at a density of 4,000 cells per well and allowed to attach overnight in a 5% CO2 incubator at 37° C. […] After shaking the plate gently to distribute the dye in the wells, the absorbance was measured with a spectrophotometer (Bio-RadiMark Microplate Absorbance reader) at a wavelength of 450 nm and a reference wavelength of 655 nm.
(§7) To evaluate the half maximal inhibitory concentration (IC50) of tetracycline derivatives on five different cell lines (MCF-7, A549, HT-29, BxPC-3, and AsPC-1), the cells were seeded and allowed to attach overnight. […] Inhibition of cell proliferation was determined using the XTT Cell Proliferation Assay Kit. […]

[4] = system: MCF-7 cells; experiment: XTT cell proliferation assay, MCF-7; conditions: MCF-7, 72 h, 1-50 μM
Method: as §1, §2, §6, §7

[5] = system: HT-29 cells; experiment: XTT cell proliferation assay, HT-29; conditions: HT-29, 72 h, 1-50 μM
Method: as §1, §2, §6, §7

[6] = system: POLK; experiment: Western blot of POLK protein expression in BxPC-3 cells; conditions: BxPC-3, 72 h, increasing concentrations
[7] = system: p53 (mutated in BxPC-3); experiment: Western blot of p53 protein expression in BxPC-3 cells; conditions: BxPC-3, 72 h, increasing concentrations

| Compound | suppression of proliferation, up to ([1]; BxPC-3, 72 h, concentration-dependent, 1-50 μM) | cytotoxicity at 25 µM ([1]; Homo sapiens, BXPC-3, 72 h, BxPC-3, 25 μM, 72 h, read-out: decrease in cell growth / viability) [%] | IC50 ([1]; Homo sapiens, BXPC-3, 72 h, read-out: IC50, inhibition of cell proliferation) [µM] | suppression of proliferation, up to ([2]; AsPC-1, 72 h, concentration-dependent, 1-50 μM) | IC50 ([2]; Homo sapiens, ASPC1, 72 h, read-out: IC50, inhibition of cell proliferation) [µM] | suppression of proliferation, up to ([3]; concentration-dependent) | effect on cell survival / proliferation (in words) [4] | effect on cell survival / proliferation (in words) [5] | effect on cell survival / viability (in words) ([1]; BxPC-3, 72 h, 1-50 μM) | effect on cell survival / viability (in words) ([2]; AsPC-1, 72 h, 1-50 μM) | effect on cell survival / proliferation (in words) [3] | decrease in cell growth ([1]; BxPC-3, 1 μM, 72 h) [%] | decrease in cell growth ([1]; BxPC-3, 10 μM, 72 h) [%] | POLK protein expression vs control [6] | p53 protein expression vs control [7] |
| --- | --- | --- | --- | --- | --- | --- | --- | --- | --- | --- | --- | --- | --- | --- | --- |
| CN(C)c1cc(NC(=O)CNC(C)(C)C)c(O)c2c1C[C@H]1C[C@H]3[C@H](N(C)C)C(O)=C(C(N)=O)C(=O)[C@@]3(O)C(O)=C1C2=O [tigecycline] | 60-65% | 60 | 9.9 | 60-65% | 4.58 | 60-65% | no significant effect | no significant effect | – | – | – | – | – | – | – |
| CN(C)c1cc(CNCC(C)(C)C)c(O)c2c1C[C@H]1C[C@H]3[C@H](N(C)C)C(O)=C(C(N)=O)C(=O)[C@@]3(O)C(O)=C1C2=O [omadacycline] | – | – | – | – | – | – | no significant effect on cell survival | no significant effect on cell survival | no significant effect on cell survival | no significant effect on cell survival | no significant effect on cell survival | – | – | – | – |
| COc1cccc2c1C(=O)c1c(O)c3c(c(O)c1C2=O)C[C@@](O)(C(=O)CO)C[C@@H]3O[C@H]1C[C@H](N)[C@H](O)[C@H](C)O1 [doxorubicin] | – | – | – | – | – | – | – | – | – | – | – | 67 | 94 | Neither gemcitabine nor doxorubicin reduced | Neither gemcitabine nor doxorubicin reduced |
| Nc1ccn([C@@H]2O[C@H](CO)[C@@H](O)C2(F)F)c(=O)n1 [gemcitabine] | – | – | – | – | – | – | – | – | – | – | – | 77 | 80 | Neither gemcitabine nor doxorubicin reduced | Neither gemcitabine nor doxorubicin reduced |
